Source: ChEMBL document CHEMBL6087454, “Identification of Novel Organo-Se BTSA-Based Derivatives as Potent, Reversible, and Selective PPARγ Covalent Modulators for Antidiabetic Drug Discovery” (J Med Chem, 2025)
The source made the active and inactive calls. The rule behind the calls is not given here.

Key:
3T3-L1 [1] = assay: Inhibition of adipocyte differentiation in mouse 3T3-L1 cells assessed as reduction in lipid accumulation at 1 uM measured after 48 hrs by Oil red O staining based inverted microscopic analysis; type: functional, cell-based
Mus musculus [2] = assay: Antidiabetic activity in male db/db mouse model assessed as downregulation of LPL gene expression in liver at 2.5 to 10 mg/kg/day, ip administered for 4 weeks by RT-qPCR analysis; type: functional, organism-based; settings: dose 2.5-10 mg/kg/day
Mus musculus [3] = assay: Antidiabetic activity in male db/db mouse model assessed as improvement in glucose tolerance at 2.5 to 10 mg/kg/day, ip preadministered for 4 weeks followed by glucose administration after 4 to 6 hrs of fasting and measured after 120 mins by intraperitoneal glucose tolerance test; type: functional, organism-based; settings: dose 2.5-10 mg/kg/day
[4] = Toxicity in male db/db mouse model assessed as effect on heart weight at 2.5 to 10 mg/kg/day, ip administered for 4 weeks; type: organism-based; settings: in vivo, 672 h, dose 2.5-10 mg/kg/day
Mus musculus [5] = assay: Antidiabetic activity in male db/db mouse model assessed as downregulation of FASN gene expression in liver at 2.5 to 10 mg/kg/day, ip administered for 4 weeks by RT-qPCR analysis; type: functional, organism-based; settings: dose 2.5-10 mg/kg/day
[6] = target: T1, Peroxisome proliferator-activated receptor gamma (Homo sapiens) (UniProt P37231); assay: Partial agonist activity at recombinant GST-tagged human PPAR-gamma ligand binding domain (E235 to Y505 residues) extracted from Escherichia coli BL21 (DE3) cells by TR-FRET assay; settings: filed as partial agonist
T1 sequence (whole entry): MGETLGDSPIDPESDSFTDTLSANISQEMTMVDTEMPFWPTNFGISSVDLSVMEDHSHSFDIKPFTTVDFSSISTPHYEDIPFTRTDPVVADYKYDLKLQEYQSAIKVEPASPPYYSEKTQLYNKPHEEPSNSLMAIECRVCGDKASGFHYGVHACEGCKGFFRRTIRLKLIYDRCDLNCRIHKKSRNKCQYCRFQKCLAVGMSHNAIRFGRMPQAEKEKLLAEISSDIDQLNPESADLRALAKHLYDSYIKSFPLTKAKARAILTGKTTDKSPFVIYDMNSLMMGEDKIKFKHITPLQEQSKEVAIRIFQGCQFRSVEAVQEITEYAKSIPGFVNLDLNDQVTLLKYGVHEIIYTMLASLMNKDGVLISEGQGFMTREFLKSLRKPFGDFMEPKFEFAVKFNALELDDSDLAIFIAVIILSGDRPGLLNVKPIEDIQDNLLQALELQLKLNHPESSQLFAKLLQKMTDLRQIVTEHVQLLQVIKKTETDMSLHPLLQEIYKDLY

Mus musculus [7] = assay: Antidiabetic activity in male db/db mouse model assessed as downregulation of PTP1B gene expression in white adipose tissue at 2.5 to 10 mg/kg/day, ip administered for 4 weeks by RT-qPCR analysis; type: functional, organism-based; settings: dose 2.5-10 mg/kg/day
Mus musculus [8] = assay: Antidiabetic activity in male db/db mouse model assessed as upregulation of Glut4 gene expression in white adipose tissue at 2.5 to 10 mg/kg/day, ip administered for 4 weeks by RT-qPCR analysis; type: functional, organism-based; settings: dose 2.5-10 mg/kg/day
3T3-L1 [9] = assay: Inhibition of adipogenesis in mouse 3T3-L1 cells assessed as downregulation of C/EBPalpha gene expression at 1 uM measured after 48 hrs by RT-qPCR analysis; type: functional, cell-based
Mus musculus [10] = assay: Antidiabetic activity in male db/db mouse model assessed as downregulation of PPARgamma gene expression in white adipose tissue at 2.5 to 10 mg/kg/day, ip administered for 4 weeks by RT-qPCR analysis; type: functional, organism-based; settings: dose 2.5-10 mg/kg/day
Mus musculus [11] = assay: Antidiabetic activity in male db/db mouse model assessed as downregulation of CD36 gene expression in white adipose tissue at 2.5 to 10 mg/kg/day, ip administered for 4 weeks by RT-qPCR analysis; type: functional, organism-based; settings: dose 2.5-10 mg/kg/day
Mus musculus [12] = assay: In vivo inhibition of Erk/Cdk5-mediated PPAR-gamma phosphorylation at Ser273 residue in male db/db mouse model assessed as decrease in phosphorylated-MEK expression in white adipose tissue at 2.5 to 10 mg/kg/day, ip administered for 4 weeks by Western blotting analysis; type: functional, organism-based; settings: dose 2.5-10 mg/kg/day
[13] = target: T1, Peroxisome proliferator-activated receptor gamma (Homo sapiens); assay: Covalent binding affinity to recombinant PPAR-gamma ligand binding domain (unknown origin) at Cys285 residue at 0.4 uM incubated for 30 mins by rhodamine-maleimide staining based SDS-PAGE analysis; settings: filed as partial agonist
Mus musculus [14] = assay: Antidiabetic activity in male db/db mouse model assessed as increase in ADIPOQ protein abundance in liver at 2.5 to 10 mg/kg/day, ip administered for 4 weeks by Western blotting analysis; type: functional, organism-based; settings: dose 2.5-10 mg/kg/day
Mus musculus [15] = assay: Antidiabetic activity in male db/db mouse model assessed as downregulation of C/EBPalpha gene expression in white adipose tissue at 2.5 to 10 mg/kg/day, ip administered for 4 weeks by RT-qPCR analysis; type: functional, organism-based; settings: dose 2.5-10 mg/kg/day
[16] = target: T1, Peroxisome proliferator-activated receptor gamma (Homo sapiens); assay: Reversible covalent binding affinity to full-length human PPAR-gamma transfected in […] cells at 5 to 60 nM preincubated for 6 hrs followed by rosiglitazone addition and measured after 24 hrs by Firefly and Renilla-Glo luciferase reporter assay; type: cell-based; settings: filed as partial agonist, dose 5-60 nM, time 30.0 hrs
Mus musculus [17] = assay: In vivo inhibition of Erk/Cdk5-mediated PPAR-gamma phosphorylation at Ser273 residue in male db/db mouse model assessed as decrease in phosphorylated-MEK expression in liver at 2.5 to 10 mg/kg/day, ip administered for 4 weeks by Western blotting analysis; type: functional, organism-based; settings: dose 2.5-10 mg/kg/day
[18] = Toxicity in male db/db mouse model assessed as effect on kidney weight at 2.5 to 10 mg/kg/day, ip administered for 4 weeks; type: organism-based; settings: in vivo, 672 h, dose 2.5-10 mg/kg/day
Mus musculus [19] = assay: Antidiabetic activity in male db/db mouse model assessed as downregulation of FASN gene expression in white adipose tissue at 2.5 to 10 mg/kg/day, ip administered for 4 weeks by RT-qPCR analysis; type: functional, organism-based; settings: dose 2.5-10 mg/kg/day
Mus musculus [20] = assay: Antidiabetic activity in male db/db mouse model assessed as downregulation of CD36 gene expression in liver at 2.5 to 10 mg/kg/day, ip administered for 4 weeks by RT-qPCR analysis; type: functional, organism-based; settings: dose 2.5-10 mg/kg/day
Mus musculus [21] = assay: Antidiabetic activity in male db/db mouse model assessed as upregulation of adiponectin gene expression in white adipose tissue at 2.5 to 10 mg/kg/day, ip administered for 4 weeks by RT-qPCR analysis; type: functional, organism-based; settings: dose 2.5-10 mg/kg/day
Mus musculus [22] = assay: Antidiabetic activity in male db/db mouse model assessed as decrease in PDK4 protein abundance in white adipose tissue at 2.5 to 10 mg/kg/day, ip administered for 4 weeks by Western blotting analysis; type: functional, organism-based; settings: dose 2.5-10 mg/kg/day
[23] = Toxicity in male db/db mouse model assessed as increase in white adipose tissue weight at 2.5 to 10 mg/kg/day, ip administered for 4 weeks; type: organism-based; settings: in vivo, 672 h, dose 2.5-10 mg/kg/day
[24] = Toxicity in male db/db mouse model assessed as effect on kidney morphology at 2.5 to 10 mg/kg/day, ip administered for 4 weeks; type: organism-based; settings: in vivo, 672 h, dose 2.5-10 mg/kg/day
3T3-L1 [25] = assay: Inhibition of adipogenesis in mouse 3T3-L1 cells assessed as downregulation of FASN gene expression at 1 uM measured after 48 hrs by RT-qPCR analysis; type: functional, cell-based
Mus musculus [26] = assay: Antidiabetic activity in male db/db mouse model assessed as increase in ADIPOQ protein abundance in white adipose tissue at 2.5 to 10 mg/kg/day, ip administered for 4 weeks by Western blotting analysis; type: functional, organism-based; settings: dose 2.5-10 mg/kg/day

For `Cc1ccc(S(=O)(=O)Oc2ccc(S3(=O)=N[Se]c4cc(OS(=O)(=O)c5ccc(C)cc5)ccc43)cc2)cc1` (stereo unspecified), the inhibition (3T3-L1 [1]) was “Active”, the Activity (Mus musculus [2]) was “Active” and the Activity (Mus musculus [3]) was “Active; Superior To That Of Reference Compound Gw9662”. The Activity [4] was “Non-toxic”, the Activity (Mus musculus [5]) was “Active” and the Activity [6] was “Active”. The Activity (Mus musculus [7]) was “Active”, the Activity (Mus musculus [8]) was “Active” and the inhibition (3T3-L1 [9]) was “Active”. The Activity (Mus musculus [10]) was “Active”, the Activity (Mus musculus [11]) was “Active” and the inhibition (Mus musculus [12]) was “Active”. The Activity [13] was “Active”, the Activity (Mus musculus [14]) was “Active” and the Activity (Mus musculus [15]) was “Active”. The Activity [16] was “Active”, the inhibition (Mus musculus [17]) was “Active” and the Activity [18] was “Non-toxic”. For the same molecule, the Activity (Mus musculus [19]) was “Active”, the Activity (Mus musculus [20]) was “Active” and the Activity (Mus musculus [21]) was “Active”. The Activity (Mus musculus [22]) was “Active”, the Activity [23] was “Non-toxic” and the Activity [24] was “Non-toxic”. For the same molecule, the inhibition (3T3-L1 [25]) was “Active” and the Activity (Mus musculus [26]) was “Active”.
